We go through 14 molecules from patent US6559164B1, “Substituted pyrroles suitable for continuous infusion” (Hoffmann-La Roche Inc., priority 1999, dated 2003).

The nature of data set [1]: Stability in solution for intravenous administration (release of 3-(1-methyl-3-indolyl)-4-(1-methyl-6-nitro-3-indolyl)-1H-pyrrole-2,5-dione). Particulars: 72 hours at room temperature in a mixture of acetonitrile and saline or dextrose water; parent pyrrole-2,5-dione detected. The data set is classed as physicochemical. As for the experimental part: “Stability” is an overall assessment of the ability of a compound of formula I to withstand degradation in a typical solution used for the administration of drugs intravenously. Specifically, it refers to the ability of any given compound of formula I to release 3-(1-methyl-3-indolyl)-4-(1-methyl-6-nitro-3-indolyl)-1H-pyrrole-2,5-dione, over a 72 hour period in a mixture of acetonitrile and saline or dextrose water. The
“stability” of a compound of formula I is “very good” if the less than 1% 3-(1-Methyl-3-indolyl)-4-(1-methyl-6-nitro-3-indolyl)-1H-pyrrole-2,5-dione is detected, “good” if less than 2.5% 3-(1-Methyl-3-indolyl)-4-(1-methyl-6-nitro-3-indolyl)-1H-pyrrole-2,5-dione is detected, and “fair” if less than 5% 3-(1-Methyl-3-indolyl)-4-(1-methyl-6-nitro-3-indolyl)-1H-pyrrole-2,5-dione is detected after 72 hours incubation at room temperature.

A short description of data set [2]: Plasma conversion (degradation in plasma to the active metabolite). Type of data set: in vitro ADME. Particulars: human or rodent plasma at 37° C., percent degradation. The protocol: “Plasma conversion” with respect to compounds of formula I means the degradation (enzymatic and/or non-enzymatic) of such compound in human or rodent plasma at 37° C. from 30 minutes to 6 hours to give 3-(1-methyl-3-indolyl)-4-(1-methyl-6-nitro-3-indolyl)-1H-pyrrole-2,5-dione, a pharmaceutically active metabolite of compounds of formula I, as well as pharmaceutically active metabolites thereof. This conversion is typically given as the percent degradation over a specified time frame.

Counter-ions that a name gives are not always drawn.

Turning to `CCN(CC)CCNC(=O)N1C(=O)C(c2cn(C)c3ccccc23)=C(c2cn(C)c3cc([N+](=O)[O-])ccc23)C1=O` [Example 21, 3-(1-Methyl-1H-indol-3-yl)-4-(1-methyl-6-nitro-1H-indol-3-yl)-2,5-dioxo-2,5-dihydro-pyrrole-1-carboxylic Acid (2-Diethylamino-ethyl)-amide], the Stability entry in data set [1] is given as “Fair”. Moreover, the “Plasma Conversion” value in data set [2] (@ 1 hr) was determined as 100% @ 1 hr.

Turning to `CCCCCCC=CCCCCCCCC(=O)OCN1C(=O)C(c2cn(C)c3ccccc23)=C(c2cn(C)c3cc([N+](=O)[O-])ccc23)C1=O` [Example 3g, hexadec-9-enoic 3-(1-methyl-1H-indol-3-yl)-4-(1-methyl-6-nitro-1H-indol-3-yl)-2,5-dioxo-2,5-dihydro-pyrrol-1-ylmethyl ester], the Stability entry in data set [1] was “Good”.

Regarding `Cn1cc(C2=C(c3cn(C)c4cc([N+](=O)[O-])ccc34)C(=O)N(COC(=O)c3ccc(OP(=O)(O)O)cc3)C2=O)c2ccccc21` [Example 14, 4-Phosphonooxy-benzoic Acid 3-(1-Methyl-1H-indol-3-yl)-4-(1-methyl-6-nitro-1H-indol-3-yl)-2,5-dioxo-2,5-dihydro-pyrrol-1-ylmethyl Ester Monosodium Salt], in data set [1], the Stability entry was “Good”. The “Plasma Conversion” value in data set [2] (@ 4 hrs) was determined as 5% @ 4 hrs.

Turning to `Cn1cc(C2=C(c3cn(C)c4cc([N+](=O)[O-])ccc34)C(=O)N(COC(=O)NCCOP(=O)(O)O)C2=O)c2ccccc21` [Example 20, (2-Phosphonooxy-ethyl)-carbamic Acid 3-(1-Methyl-1H-indol-3-yl)-4-(1-methyl-6-nitro-1H-indol-3-yl)-2,5-dioxo-2,5-dihydro-pyrrol-1-ylmethyl Ester], the Stability entry in data set [1] is given as “Good”.

As for `Cn1cc(C2=C(c3cn(C)c4cc([N+](=O)[O-])ccc34)C(=O)N(C(=O)NCCCCOP(=O)([O-])[O-])C2=O)c2ccccc21.[Na+].[Na+]` [Example 24, Phosphoric Acid Mono-(4-{[3-(1-methyl-1H-indol-3-yl)-4-(1-methyl-6-nitro-1H-indol-3-yl)-2,5-dioxo-2,5-dihydro-pyrrole-1-carbonyl]-amino}-butyl) Ester Sodium Salt], the Stability result in data set [1] is on record as “Good”. The “Plasma Conversion” value in data set [2] (@ 6 hrs) is on record as 10% @ 6 hrs.

`Cn1cc(C2=C(c3cn(C)c4cc([N+](=O)[O-])ccc34)C(=O)N(COC(=O)CCC(=O)O)C2=O)c2ccccc21` [Example 3f, succinic acid mono-[3-(1-methyl-1H-indol-3-yl)-4-(1-methyl-6-nitro-1H-indol-3-yl)-2,5-dioxo-2,5-dihydro-pyrrol-1-ylmethyl] ester]: in data set [1], the Stability result is “Good”. Also, the “Plasma Conversion” value in data set [2] (@ 30 min) is 20% @ 30 min.

`Cn1cc(C2=C(c3cn(C)c4cc([N+](=O)[O-])ccc34)C(=O)N(CO)C2=O)c2ccccc21`: the melting point fell in the range of 209 to 211 °C.

For `Cn1cc(C2=C(c3cn(C)c4cc([N+](=O)[O-])ccc34)C(=O)N(COC(=O)Cc3cccnc3)C2=O)c2ccccc21` [Example 3d, pyridin-3-yl acetic acid 3-(1-methyl-1H-indol-3-yl)-4-(1-methyl-6-nitro-1H-indol-3-yl)-2,5-dioxo-2,5-dihydro-pyrrol-1-ylmethyl ester], the Stability entry in data set [1] is “Good”. Also, the “Plasma Conversion” value in data set [2] (@ 30 min) was 70% @ 30 min.

Consider `Cn1cc(C2=C(c3cn(C)c4cc([N+](=O)[O-])ccc34)C(=O)N(COC(=O)c3cccnc3)C2=O)c2ccccc21` [Example 3a, nicotinic acid 3-(1-methyl-1H-indol-3-yl)-4-(1-methyl-6-nitro-1H-indol-3-yl)-2,5-dioxo-2,5-dihydro-pyrrol-1-ylmethyl ester], for which the Stability result in data set [1] is given as “Good”. Moreover, the “Plasma Conversion” value in data set [2] (@ 30 min) worked out at 70% @ 30 min.

Consider `Cn1cc(C2=C(c3cn(C)c4cc([N+](=O)[O-])ccc34)C(=O)N(COC(=O)C3CCNCC3)C2=O)c2ccccc21` [Example 8a, piperidine-4-carboxylic acid 3-(1-methyl-1H-indol-3-yl)-4-(1-methyl-6-nitro-1H-indol-3-yl)-2,5-dioxo-2,5-dihydro-pyrrol-1-ylmethyl ester trifluoroacetate], for which the Stability entry in data set [1] is given as “Good”. Besides, the “Plasma Conversion” value in data set [2] (@ 30 min) is 30% @ 30 min.

As to “[[3-(1-Methyl-1H-indol-3-yl)-4-(1-methyl-6-nitro-1H-indol-3-yl)-2,5-dioxo-2,5-dihydro-pyrrol-1-yl]methoxycarbonyl]-4-phenyl-O-methylpolyethylene Glycol 500 [Example 15]”, the Stability entry in data set [1] is given as “Good”. In addition, in data set [2] (@ 2 hrs), the “Plasma Conversion” value came to 100% @ 2 hrs.

Turning to `Cn1cc(C2=C(c3cn(C)c4cc([N+](=O)[O-])ccc34)C(=O)N(COC(=O)Cc3ccncc3)C2=O)c2ccccc21` [Example 3c, pyridin-4-yl acetic acid 3-(1-methyl-1H-indol-3-yl)-4-(1-methyl-6-nitro-1H-indol-3-yl)-2,5-dioxo-2,5-dihydro-pyrrol-1-ylmethyl ester], in data set [1], the Stability result is on record as “Good”. The “Plasma Conversion” value in data set [2] (@ 30 min) was 60% @ 30 min.

In the case of `Cn1cc(C2=C(c3cn(C)c4cc([N+](=O)[O-])ccc34)C(=O)N(COC(=O)c3ccc[n+](C)c3)C2=O)c2ccccc21` [Example 12, 1-Methyl-3-[3-(1-methyl-1H-indol-3-yl)-4-(1-methyl-6-nitro-1H-indol-3-yl)-2,5-dioxo-2,5-dihydro-pyrrol-1-ylmethoxycarbonyl]-pyridinium; Trifluoroacetate], in data set [1], the Stability result was “Fair”. Further, the “Plasma Conversion” value in data set [2] (@ 30 min) was found to be 60% @ 30 min.

As to `Cn1cc(C2=C(c3cn(C)c4cc([N+](=O)[O-])ccc34)C(=O)N(COC(=O)COCCOCCOCCOCC(=O)O)C2=O)c2ccccc21` [Example 3h, [2-[2-(2-carboxymethoxy-ethoxy)-ethoxy]-ethoxy] acetic acid-3-(1-methyl-1H-indol-3-yl)-4-(1-methyl-6-nitro-1H-indol-3-yl)-2,5-dioxo-2,5-dihydro-pyrrol-1-ylmethyl ester], the Stability entry in data set [1] is “Fair”.
